In article PMC10816808, “Enhancement of the Antitumor and Antimetastatic Effect of Topotecan and Normalization of Blood Counts in Mice with Lewis Carcinoma by Tdp1 Inhibitors—New Usnic Acid Derivatives” (International Journal of Molecular Sciences, 2024):

Experiments:
[1] = test system: various types of cultured cells; experiment: MTT test, panel of cultured cell lines; type: cell-based; settings: at concentrations up to 100 μM; wide panel of tumor and non-cancerous cell lines
Source text: (§1) Compounds 6 and 8 with a bromophenol residue in the enamine fragment have a weak or moderate effect on cell survival (Table 1 and Supplementary Figure S1).
(§2) Cytotoxicity of the compounds against human tumor cell lines: HeLa (cervical cancer), HCT-116 (colorectal cancer), A-549 (lung cancer), MCF-7 (breast cancer), T98G (glioblastoma), HepG2 (hepatocarcinoma), and nontumor cell lines: MRC-5 (lung fibroblasts) and HEK293A (human embryonic kidney) was examined using the MTT test. HCT-116 and MRC-5 cell lines were provided by the Cell Culture Bank of the State Research Center for Virology and Biotechnology Vector, Novosibirsk, Russia. A-549, MCF-7, and T98G cell lines were obtained from the Russian Cell Culture Collection (RCCC) Institute of Cytology RAS (St. Petersburg, Russia). HEK293A cells were purchased (ThermoFisher Scientific, Waltham, MA, USA).
The cell culture medium DMEM medium (Invitrogen, Carlsbad, CA, USA) contained 10% fetal bovine serum (FBS) (Invitrogen), penicillin (100 units/mL), and streptomycin (100 µg/mL). Cells were seeded into 96-well plates at 5000 cells per well and grown at 37 °C and 5% CO2 in a humid atmosphere. At 30–50% confluence, the tested compounds were added to the medium to a final DMSO content of 1%. Control wells contained 1% DMSO. […]

[2] = MTT cytotoxicity test, A-549; type: cell-based; settings: human, A-549 cells (lung cancer), read-out: semitoxic concentration (CC50), A-549
Source text: as §1, §2
The cell culture medium DMEM medium (Invitrogen, Carlsbad, CA, USA) contained 10% fetal bovine serum (FBS) (Invitrogen), penicillin (100 units/mL), and streptomycin (100 µg/mL). Cells were seeded into 96-well plates at 5000 cells per well and grown at 37 °C and 5% CO2 in a humid atmosphere. At 30–50% confluence, the tested compounds were added to the medium to a final DMSO content of 1%. Control wells contained 1% DMSO. To determine the cytotoxicity of Tdp1 inhibitors, the cells were treated with compounds with concentrations ranging from 1 to 100 µM for 72 h at 37 °C […]. All measurements were repeated a minimum of twice.

Tdp1 = target: T1, Tdp1 (Homo sapiens, UniProt Q9NUW8); experiment: Tdp1 inhibition, fluorescent oligonucleotide biosensor; type: biochemical; settings: purified Tdp1 1.5 nM, 50 nM biosensor; read-out: Concentration of half-maximal inhibition of Tdp1 (IC50)
T1 construct: Purified Tdp1 (1.5 nM) triggered the reaction
Source text: The inhibitory properties of the compound on the purified Tdp1 was studied using a technique developed previously by our team. A 16-mer single-stranded oligonucleotide carrying a fluorophore at the 5′-end and a quencher at the 3′-end was used as a biosensor. When within the Förster radius, the quencher suppressed the fluorescence of the fluorophore. The quencher was removed by Tdp1, resulting in fluorescence emission. Usnic acid derivatives with a bromophenol residue in the enamine fragment (compounds 6 and 8) inhibit the enzyme with half-maximal inhibition concentrations (IC50) an order of magnitude worse than derivatives with a di-tert-butyl fragment (compounds 5 and 7).
An oligonucleotide 5′-[FAM] AAC GTC AGGGTC TTC C [BHQ1]-3′ synthesized in the laboratory Laboratory of Nucleic Acids Chemistry at the Institute of Chemical Biology and Fundamental Medicine (Novosibirsk, Russia) was used as a biosensor. Removal of the quencher (BHQ1) due to enzyme activity leads to increased fluorescence of FAM. The reaction was carried out at different concentrations of inhibitors (1.5% of DMSO, Sigma, St. Louis, MO, USA, in the control samples). The reaction mixtures contained Tdp1 buffer (50 mM Tris-HCl pH 8.0, 50 mM NaCl, and 7 mM β-mercaptoethanol), 50 nM biosensor, and an inhibitor being tested. Purified Tdp1 (1.5 nM) triggered the reaction.
The fluorescence was measured using POLARstar OPTIMA fluorimeter (BMG LABTECH, GmbH, Ortenberg, Germany). The values of IC50 were determined in minimum three independent experiments and were calculated using embedded software MARS Data Analysis 2.0 (BMG LABTECH, GmbH, Ortenberg, Germany).

HeLa = experiment: Topotecan cytotoxicity with Tdp1 inhibitor (MTT), HeLa; type: cell-based; settings: Homo sapiens, topotecan alone or in the presence of 5 µM Tdp1 inhibitor
Source text: (§3) Tdp1 inhibitors combined with topotecan dramatically reduce tumor metastasis. Usnic acid derivatives of the enamine and hydrazonothiazole series turned out to be promising sensitizers of the action of topotecan both on cultured cell lines and on mouse tumors in vivo [30, 32]. We studied the ability of the usnic acid derivatives to sensitize the effects of topotecan on the same panel of cell lines. We used two non-cancerous cell lines MRC-5 and HEK293A, including previously obtained HEK293A Tdp1 knockout cells (for compound 7), and cancerous cell lines HeLa, HCT-116, A-549, MCF-7, T98G. We found the most pronounced and reliable sensitizing effect on cancerous cell lines HeLa, HCT-116, A-549, MCF-7 only for compound 7 (Table 2 and Figures S2 and S3).
as §2, with “HEK293A cells were purchased (ThermoFisher Scientific, Waltham, MA, USA).” left out

T98G = experiment: Topotecan cytotoxicity with Tdp1 inhibitor (MTT), T98G; type: cell-based; settings: Homo sapiens, topotecan alone or in the presence of 5 µM Tdp1 inhibitor
Source text: as §3
as §2, with “HEK293A cells were purchased (ThermoFisher Scientific, Waltham, MA, USA).” left out

MCF-7 = experiment: Topotecan cytotoxicity with Tdp1 inhibitor (MTT), MCF-7; type: cell-based; settings: Homo sapiens, MCF7; topotecan alone or in the presence of 5 µM Tdp1 inhibitor
Source text: as §3
as §2, with “HEK293A cells were purchased (ThermoFisher Scientific, Waltham, MA, USA).” left out

[3] = Topotecan cytotoxicity with Tdp1 inhibitor (MTT), HEK293A; type: cell-based; settings: human, HEK293A cells (embryonic kidney, nontumor); topotecan alone or in the presence of 5 µM Tdp1 inhibitor
Source text: as §3
as §2, with “HEK293A cells were purchased (ThermoFisher Scientific, Waltham, MA, USA).” left out

[4] = Topotecan cytotoxicity with Tdp1 inhibitor (MTT), MRC-5; type: cell-based; settings: human, MRC-5 cells (lung fibroblasts, nontumor); topotecan alone or in the presence of 5 µM Tdp1 inhibitor
Source text: as §3
as §2, with “HEK293A cells were purchased (ThermoFisher Scientific, Waltham, MA, USA).” left out

HCT-116 = experiment: Topotecan cytotoxicity with Tdp1 inhibitor (MTT), HCT-116; type: cell-based; settings: Homo sapiens, topotecan alone or in the presence of 5 µM Tdp1 inhibitor
Source text: as §3
as §2, with “HEK293A cells were purchased (ThermoFisher Scientific, Waltham, MA, USA).” left out

T1 sequence (Q9NUW8 whole entry): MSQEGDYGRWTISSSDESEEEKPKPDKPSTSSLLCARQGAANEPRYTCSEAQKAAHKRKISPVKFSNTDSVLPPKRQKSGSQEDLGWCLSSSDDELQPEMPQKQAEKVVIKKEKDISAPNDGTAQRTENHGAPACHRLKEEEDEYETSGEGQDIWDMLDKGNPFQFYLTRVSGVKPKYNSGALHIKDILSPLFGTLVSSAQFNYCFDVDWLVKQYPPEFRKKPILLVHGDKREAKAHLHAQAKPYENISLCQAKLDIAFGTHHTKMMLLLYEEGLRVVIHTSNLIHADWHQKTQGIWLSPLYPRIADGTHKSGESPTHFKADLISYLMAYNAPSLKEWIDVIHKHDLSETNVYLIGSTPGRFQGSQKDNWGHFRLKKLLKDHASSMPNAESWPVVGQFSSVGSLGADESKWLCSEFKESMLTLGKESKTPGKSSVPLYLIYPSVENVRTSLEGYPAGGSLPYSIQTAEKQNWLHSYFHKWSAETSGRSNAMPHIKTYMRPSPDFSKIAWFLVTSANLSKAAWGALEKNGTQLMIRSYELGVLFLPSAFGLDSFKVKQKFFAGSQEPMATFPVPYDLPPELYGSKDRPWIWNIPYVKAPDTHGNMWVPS

SMILES | living cells (metabolic activity, MTT) [1] | CC50 at 72 h [2] | IC50 (Tdp1) | CC50 (HeLa) | CC50 (T98G) | CC50 (MCF-7) | CC50 [3] | CC50 [4] | CC50 (HCT-116)
C/C(NCCCc1cc(C(C)(C)C)c(O)c(C(C)(C)C)c1)=C1\C(=O)C=C2Oc3c(-c4csc(N/N=C/c5ccc(Br)cc5)n4)c(O)c(C)c(O)c3[C@@]2(C)C1=O [Compound 7, (4E)-10-{2-[(E)-2-[(4-bromophenyl)methylidene]hydrazin-1-yl]-1,3-thiazole-4-yl}-4-(1-{[3-(3,5-di-tret-butyl-4-hydroxyhenyl)propyl]amino}ethylidene)-11,13-dihydroxy-2,12-dimethyl-8-oxatricyclo [7.4.0.02,7]trideca-1(13),6,9,11-tetraen-3,5-dione] | more than 50% | > 100 µM | 0.12 ± 0.01 µM |  |  |  |  |  | 
CC[C@@]1(O)C(=O)OCc2c1cc1n(c2=O)Cc2cc3c(CN(C)C)c(O)ccc3nc2-1 [Tpc, topotecan] |  |  |  | 9.9 µM | 2.5 µM | 1.4 µM | 0.033 µM | > 10 µM | 0.81 µM
